US6420110B1, “Methods and reagents for isolating biologically active peptides” (GPC Biotech, Inc., priority 1998, dated 2002)

System: bovine capillary endothelial (BCE) cells
Experiment: Inhibition of bFGF stimulated BCE cell proliferation in Transwells (CyQUANT)
Format: cell-based
Settings: 1 ng/ml bFGF, 72 hrs
Experimental: COS-7 cells were transfected with pAM9-myc, pAM9-RGD and pAM9-K1 plasmids, respectively, that direct the expression and secretion of the Myc epitope-6xHis, the RGD and the angiostatin first kringle domain peptides. The transfected COS-7 cells were co-incubated in Transwells with BCE cells whose proliferation was stimulated by 1 ng/ml bFGF. As controls, untransfected COS-7 cells and bFGF stimulated BCE cells were similarly co-incubated and synthetic Myc-6xHis and RGD peptides as well as purified K1 were added to the media at the indicated concentrations. The proliferation of the bFGF stimulated BCE cells were measured 72 hrs later using the fluorescent CyQUANT proliferation kit (Molecular Probes).

CDCRGDCFC [RGD peptide, positive control]
inhibition of bFGF stimulated BCE cell proliferation (peptide secreted from transfected COS-7 cells co-incubated in Transwells): inhibited
inhibition of bFGF stimulated BCE cell proliferation (synthetic or purified peptide added to the media, untransfected COS-7 cells co-incubated): inhibited
